Test results as given in patent publication US20040001827A1, “Serum albumin binding peptides for tumor targeting” (priority 2002, published 2004).
Like-named read-outs stand apart in the source and are kept apart here. Where a SMILES comes first, the peptide text is derived from it. Bridges are numbered along the chain shown (N, C = ends).

Molecular target: T1, rabbit albumin (Oryctolagus cuniculus, UniProt P49065)
T1 construct: purchased Sigma, St. Louis Mo
Test: SA08b binding (peptide competition) assay, rabbit albumin
Conditions: for improvement in IC50 relative to core sequence (SA34 and SA19): rabbit albumin
Text: Plates were blocked as described above.
Peptides corresponding to identified phage sequences were synthesized and their affinity for rat, rabbit or mouse albumin measured using the SA08b binding assay.

T1 sequence (P49065 25-608): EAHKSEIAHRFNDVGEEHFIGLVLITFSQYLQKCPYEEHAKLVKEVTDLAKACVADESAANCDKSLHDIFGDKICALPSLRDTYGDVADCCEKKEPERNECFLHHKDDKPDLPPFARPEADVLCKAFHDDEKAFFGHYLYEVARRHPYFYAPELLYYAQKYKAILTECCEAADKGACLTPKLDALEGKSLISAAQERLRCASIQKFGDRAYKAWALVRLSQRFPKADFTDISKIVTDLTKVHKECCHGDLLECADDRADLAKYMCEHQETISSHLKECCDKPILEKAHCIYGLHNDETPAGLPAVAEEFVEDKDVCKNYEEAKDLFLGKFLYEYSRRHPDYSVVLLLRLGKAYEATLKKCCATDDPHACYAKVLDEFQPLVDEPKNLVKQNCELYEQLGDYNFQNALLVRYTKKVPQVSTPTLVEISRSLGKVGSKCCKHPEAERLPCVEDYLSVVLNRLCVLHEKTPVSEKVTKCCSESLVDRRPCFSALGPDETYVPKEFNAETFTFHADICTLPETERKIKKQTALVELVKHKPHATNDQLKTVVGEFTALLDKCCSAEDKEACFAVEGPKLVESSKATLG

CC[C@H](C)[C@H](NC(C)=O)C(=O)N[C@H]1CSSC[C@@H](C(N)=O)NC(=O)CNC(=O)[C@H](Cc2c[nH]c3ccccc23)NC(=O)[C@H](CCCNC(=N)N)NC(=O)[C@@H]2CCCN2C(=O)[C@H](CC(C)C)NC1=O [SA36] (Ac-ICLPRWGC-NH2; disulfide 2-8)
IC50 (Table 9, rabbit albumin, peptide truncation series, read-out: IC50): > 250 µM

CC[C@H](C)[C@H](NC(=O)[C@H](CC(C)C)NC(=O)[C@H](CCCNC(=N)N)NC(C)=O)C(=O)N[C@@H](CCC(=O)O)C(=O)N[C@@H](CC(=O)O)C(=O)N[C@H](C(=O)N[C@H]1CSSC[C@@H](C(=O)N[C@@H](CC(C)C)C(N)=O)NC(=O)CNC(=O)[C@H](Cc2c[nH]c3ccccc23)NC(=O)[C@H](CCCNC(=N)N)NC(=O)[C@@H]2CCCN2C(=O)[C@H](CC(C)C)NC1=O)[C@@H](C)CC [SA33] (Ac-RLIEDICLPRWGCL-NH2; disulfide 7-13)
improvement in IC50 relative to core sequence (SA34 and SA19): approximately 6 fold

CC[C@H](C)[C@H](NC(=O)[C@H](CC(=O)O)NC(C)=O)C(=O)N[C@H]1CSSC[C@@H](C(=O)N[C@@H](CC(C)C)C(=O)N[C@@H](Cc2c[nH]c3ccccc23)C(=O)N[C@@H](CCC(=O)O)C(=O)N[C@@H](CC(=O)O)C(N)=O)NC(=O)CNC(=O)[C@H](Cc2c[nH]c3ccccc23)NC(=O)[C@H](CCCNC(=N)N)NC(=O)[C@@H]2CCCN2C(=O)[C@H](CC(C)C)NC1=O [SA26] (Ac-DICLPRWGCLWED-NH2; disulfide 3-9)
improvement in IC50 relative to core sequence (SA34 and SA19): about 8.6 fold

CC(=O)N[C@H]1CSSC[C@@H](C(=O)N[C@@H](CC(C)C)C(=O)N[C@@H](Cc2c[nH]c3ccccc23)C(=O)N[C@@H](CCC(=O)O)C(=O)N[C@@H](CC(=O)O)C(N)=O)NC(=O)CNC(=O)[C@H](Cc2c[nH]c3ccccc23)NC(=O)[C@H](CCCNC(=N)N)NC(=O)[C@@H]2CCCN2C(=O)[C@H](CC(C)C)NC1=O [SA28] (Ac-CLPRWGCLWED-NH2; disulfide 1-7)
IC50: > 400 µM

CC[C@H](C)[C@H](NC(=O)[C@H](CC(C)C)NC(=O)[C@H](CCCNC(=N)N)NC(C)=O)C(=O)N[C@@H](CCC(=O)O)C(=O)N[C@@H](CC(=O)O)C(=O)N[C@H](C(=O)N[C@H]1CSSC[C@@H](C(=O)N[C@@H](CC(C)C)C(=O)N[C@@H](Cc2c[nH]c3ccccc23)C(=O)N[C@@H](CCC(=O)O)C(=O)N[C@@H](CC(=O)O)C(N)=O)NC(=O)CNC(=O)[C@H](Cc2c[nH]c3ccccc23)NC(=O)[C@H](CCCNC(=N)N)NC(=O)[C@@H]2CCCN2C(=O)[C@H](CC(C)C)NC1=O)[C@@H](C)CC [SA22] (Ac-RLIEDICLPRWGCLWED-NH2; disulfide 7-13)
improvement in IC50 relative to core sequence (SA34 and SA19): 60 fold

CC[C@H](C)[C@H](NC(=O)[C@H](CC(=O)O)NC(C)=O)C(=O)N[C@H]1CSSC[C@@H](C(=O)N[C@@H](CC(C)C)C(N)=O)NC(=O)CNC(=O)[C@H](Cc2c[nH]c3ccccc23)NC(=O)[C@H](CCCNC(=N)N)NC(=O)[C@@H]2CCCN2C(=O)[C@H](CC(C)C)NC1=O [SA34] (Ac-DICLPRWGCL-NH2; disulfide 3-9)
IC50: ~25 µM
